Experimental data from patent US20020026052A1, “3-cyanoquinolines, 3-cyano-1,6-naphthyridines, and 3-cyano-1,7-naphthyridines as protein kinase inhibitors” (American Home Products Corporation, priority 2000, published 2002).
Several values for one entry are separate records, joined by “and”; a condition that tells them apart may be missing. Equal values may be shown once.

Columns and labels:
[1] = target: Rat2 fibroblasts stably transformed with v-Src/Hu c-Src fusion gene (Homo sapiens, UniProt P12931, cells depend on it, form not given); experiment: Anchorage Independent Src-transformed Fibroblast Proliferation Assay; format: cell-based, Rat; conditions: suspension growth, MTS reagent on Day 5; read-out: anch-indep src-tx fib IC50
Sequence of Rat2 fibroblasts stably transformed with v-Src/Hu c-Src fusion gene (P12931 whole entry, change not shown, the tested form may be a part): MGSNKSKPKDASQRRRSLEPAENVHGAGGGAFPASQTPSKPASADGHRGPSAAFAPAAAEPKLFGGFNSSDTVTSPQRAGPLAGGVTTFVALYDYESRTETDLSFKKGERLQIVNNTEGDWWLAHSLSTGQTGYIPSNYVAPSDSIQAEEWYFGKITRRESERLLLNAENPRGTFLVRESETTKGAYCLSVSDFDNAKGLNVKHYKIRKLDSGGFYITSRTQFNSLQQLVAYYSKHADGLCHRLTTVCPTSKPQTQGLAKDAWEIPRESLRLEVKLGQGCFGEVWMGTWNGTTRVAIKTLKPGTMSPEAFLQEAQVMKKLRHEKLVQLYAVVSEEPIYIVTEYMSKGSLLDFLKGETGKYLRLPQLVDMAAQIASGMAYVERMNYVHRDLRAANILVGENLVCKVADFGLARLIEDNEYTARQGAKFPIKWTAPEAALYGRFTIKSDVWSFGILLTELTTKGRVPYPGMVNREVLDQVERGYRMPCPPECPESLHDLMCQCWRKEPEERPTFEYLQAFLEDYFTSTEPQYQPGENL
Description: Anchorage Independent Src-transformed Fibroblast Proliferation Assay
Rat2 fibroblasts stably transformed with a plasmid containing a CMV promotor controlled v-Src/Hu c-Src fusion gene in which the catalytic domain of human c-Src was inserted in place of the v-Src catalytic domain in the v-Src gene are used for the measurement of src dependent suspension growth. […] Multiple entries for a given compound indicate that it was tested multiple times.

| Structure (SMILES) | GI50 [1] | melting point |
| --- | --- | --- |
| COC(=O)C1CCN(Cc2ccc(-c3ccc4c(Nc5cc(OC)c(Cl)cc5Cl)c(C#N)cnc4c3)nc2)CC1 [Example 176, 1-{6-[3-Cyano-4-(2,4-dichloro-5-methoxyphenylamino)-quinolin-7-yl]-pyridin-3-ylmethyl}-piperidine-4-carboxylic acid methyl ester] | 0.09 µM | 186 to 188 °C |
| COc1cc(Nc2c(C#N)cnc3cc(-c4ccc(CN5CCOCC5)c(CN5CCOCC5)c4)ccc23)c(Cl)cc1C [Example 133, 7-[3 ,4-Bis(4-morpholinylmethyl)phenyl]-4-(2-chloro-5-methoxy-4-methylanilino)-3-quinolinecarbonitrile] | 0.73 µM | 186 to 188 °C |
| COc1cc(Nc2c(C#N)cnc3cc(-c4ccc(CN5CCC[C@@H]5C(N)=O)o4)ccc23)c(Cl)cc1Cl [Example 47, (2 R)-1-({5-[3-cyano-4-(2,4-dichloro-5-methoxyanilino)-7-quinolinyl]-2-furyl}methyl)-2-pyrrolidinecarboxamide] | 1.17 µM | 121 to 126 °C |
| COc1cc(Nc2c(C#N)cnc3cc(-c4ccc(CN5CCN(CCO)CC5)o4)ccc23)c(Cl)cc1Cl [Example 75, 4-(2,4-Dichloro-5-methoxyanilino)-7-(5-{[4-(2-hydroxyethyl)-1-piperazinyl]methyl}-2-furyl)-3-quinolinecarbonitrile] | 0.29 µM | 176 to 181 °C |
| COc1cc(Nc2c(C#N)cnc3cc(-c4cccc(NC(C)=O)c4)ccc23)c(Cl)cc1Cl [Example 118, N-{3-[3-Cyano-4-(2,4-dichloro-5-methoxyanilino)-7-quinolinyl]phenyl}acetamide] | 3 µM | 262 to 263 °C |
| N#Cc1cnc2cc(C=CCCCCN3CCOCC3)ccc2c1Nc1ccc(Cl)cc1Cl (mixture of isomers) [Example 16, 4-(2,4-Dichloroanilino)-7-[(E/Z)-6-(4-morpholinyl)-1-hexenyl]-3-quinolinecarbonitrile] | > 10 µM | 128 to 130 °C |
| COc1cc(Nc2c(C#N)cnc3cc(-c4ccc(C5OCCO5)o4)ccc23)c(Cl)cc1Cl [Example 5, 4-(2,4-dichloro-5-methoxyanilino)-7-[5-(1,3-dioxolan-2-yl)-2-furyl]-3-quinolinecarbonitrile] | 0.2 µM | 224 to 229 °C |
| COc1cc(Nc2c(C#N)cnc3cc(-c4ccc(CN5CCCC(C(=O)O)C5)cc4)ccc23)c(Cl)cc1Cl (stereo not drawn) [Example 149, 1-(4-{3-Cyano-4-[(2,4-dichloro-5-methoxyphenyl)amino]-7-quinolinyl}benzyl)-3-piperidinecarboxylic acid] | 2.5 µM | 235 °C (dec.) |
| COC(=O)C1CCN(Cc2ccc(-c3ccc4c(Nc5cc(OC)c(Cl)cc5Cl)c(C#N)cnc4c3)cc2)CC1 [Example 231, Methyl 1-{4-[3-cyano-4-(2,4-dichloro-5-methoxyanilino)-7-quinolinyl]benzyl}-4-piperidinecarboxylate] | 0.39 µM | 278 to 280 °C |
| COc1cc(Nc2c(C#N)cnc3cc(-c4ccc(CN(C)C)cc4)ccc23)c(Cl)cc1Cl [Example 86, 4-(2,4-dichloro-5-methoxyanilino)-7-{4-[(dimethylamino)methyl]phenyl}-3-quinolinecarbonitrile] | 0.21 µM | 187 to 189 °C |
| N#Cc1cnc2cc(-c3csc(CN4CCOCC4)c3)ccc2c1Nc1ccc(Cl)cc1Cl [Example 25, 4-(2,4-Dichloroanilino)-7-[5-(4-morpholinylmethyl)-3-thienyl]-3-quinolinecarbonitrile] | 1.3 µM and 0.93 µM | 203 to 205 °C |
| COc1ccc(/C=C/c2ccc3c(Nc4cc(OC)c(Cl)cc4Cl)c(C#N)cnc3c2)cc1 [Example 54, 4-(2,4-Dichloro-5-methoxyanilino)-7-[(E)-2-(4-methoxyphenyl)ethenyl]-3-quinolinecarbonitrile] | > 10 µM | 216 to 220 °C |
| COc1cc(Nc2c(C#N)cnc3cc(-c4ccc(CN5CCC[C@@H]5C(N)=O)cc4)ccc23)c(Cl)cc1Cl [Example 84, (2 R)-1-{4-[3-cyano-4-(2,4-dichloro-5-methoxyanilino)-7-quinolinyl]benzyl}-2-pyrrolidinecarboxamide] | 0.77 µM | 180 to 182 °C |
| COc1cc(Nc2c(C#N)cnc3cc(-c4cnc(C=O)n4C)c(OC)cc23)c(Cl)cc1Cl [Example 228, 4-(2,4-Dichloro-5-methoxyanilino)-7-(2-formyl-1-methyl-1H-imidazol-5-yl)-6-methoxy-3-quinolinecarbonitrile] | > 10 µM | 141 to 144 °C |
| COc1cc(Nc2c(C#N)cnc3cc(-c4ccc(CO)n4C)ccc23)c(Cl)cc1Cl [Example 162, 4-(2,4-Dichloro-5-methoxyanilino)-7-[5-(hydroxymethyl)-1-methyl-lH-pyrrol-2-yl]-3-quinolinecarbonitrile] | > 10 µM | 175 °C (dec.) |
| COc1ccc(-c2ccc3c(Nc4cc(OC)c(Cl)cc4Cl)c(C#N)cnc3c2)cc1 [Example 194, 4-(2,4-Dichloro-5-methoxyanilino)-7-(4-methoxyphenyl)-3-quinolinecarbonitrile] | > 10 µM | 210 to 212 °C |
| COc1cc(Nc2c(C#N)cnc3cc(-c4ccc(C(=O)O)cc4)ccc23)c(Cl)cc1Cl [Example 121, 4-[3-Cyano-4-(2,4-dichloro-5-methoxyanilino)-7-quinolinyl]benzoic acid] | > 10 µM | 282 to 283 °C |
| COc1cc(Nc2c(C#N)cnc3cc(-c4ccc(CN5CCOCC5)cc4)ccc23)c(Cl)cc1F [Example 235, 4-(2-Chloro-4-fluoro-5-methoxyanilino)-7-[4-(4-morpholinylmethyl)phenyl]-3-quinolinecarbonitrile] | 0.79 µM | 174 to 178 °C |
| COc1cc(Nc2c(C#N)cnc3cc(-c4sccc4C=O)ccc23)c(Cl)cc1Cl [Example 163, 4-(2,4-Dichloro-5-methoxyanilino)-7-(3-formyl-2-thienyl)-3-quinolinecarbonitrile] | > 10 µM | 231 to 232 °C |
| COc1cc(Nc2c(C#N)cnc3cc(-c4ccc5ccccc5c4)ccc23)c(Cl)cc1Cl [Example 117, 4-(2,4-Dichloro-5-methoxyanilino)-7-(2-naphthyl)-3-quinolinecarbonitrile] | 6.9 µM | 243 to 244 °C |
| COc1cc(Nc2c(C#N)cnc3cc(-c4csc(CN5CCOCC5)c4)ccc23)c(Cl)cc1F [Example 79, 4-{2-Chloro-4-fluoro-5-methoxyanilino)-7-[5-(4-morpholinylmethyl)-3-thienyl]-3-quinolinecarbonitrile] | 0.13 µM | 185 to 187 °C |
| COc1cc(Nc2c(C#N)cnc3cc(C#CCO)ccc23)c(Cl)cc1Cl [Example 143, 4-(2,4-Dichloro-5-methoxyanilino)-7-(3-hydroxy-1-propynyl)-3-quinolinecarbonitrile] | > 10 µM | 245 °C (dec.) |
| COc1cc(Nc2c(C#N)cnc3cc(-c4cccn4C(=O)OC(C)(C)C)ccc23)c(Cl)cc1Cl [Example 164, tert-butyl 2-[3-cyano-4-(2,4-dichloro-5-methoxyanilino)-7-quinolinyl]pyrrole-1-carboxylate] | > 10 µM | 135 °C (dec.) |
| COc1cc(Nc2c(C#N)cnc3cc(-c4ccc(CN5CCN(C)CC5)n4C)ccc23)c(Cl)cc1Cl [Example 71, 4-(2,4-Dichloro-5-methoxyanilino)-7-{1-methyl-5-[(4-methyl-1-piperazinyl)methyl]-1H-pyrrol-2-yl}-3-quinolinecarbonitrile] | 6.8 µM | 200 °C (dec.) |
| COc1cc(Nc2c(C#N)cnc3cc(-c4ccc(N5CCOCC5)cc4)ccc23)c(Cl)cc1Cl [Example 67, 4-(2,4-Dichloro-5-methoxyanilino)-7-[4-(4-morpholinyl)phenyl]-3-quinolinecarbonitrile] | 0.11 µM | 235 to 237 °C |
| COc1cc(Nc2c(C#N)cnc3cc(-c4ccc(CNCCS(=O)(=O)c5ccccc5)cc4)ccc23)c(Cl)cc1Cl [Example 85, 4-(2,4-dichloro-5-methoxyanilino)-7-[4-({[2-(phenylsulfonyl)ethyl)amino}methyl)phenyl]-3-quinolinecarbonitrile] | 10.2 µM | 198 to 201 °C |
| COc1cc(Nc2c(C#N)cnc3cc(-c4ccc(CN5CCOCC5)n4C)ccc23)c(Cl)cc1Cl [Example 70, 4-(2,4-Dichloro-5-methoxyanilino)-7-[1-methyl-5-(4-morpholinylmethyl)-1H-pyrrol-2-yl]-3-quinolinecarbonitrile] | 6 µM | 208 to 210 °C |
| COc1cc(Nc2c(C#N)cnc3cc(-c4ccc(CCCCN5CCOCC5)s4)ccc23)c(Cl)cc1Cl [Example 22, 4-(2,4-Dichloro-5-methoxyanilino)-7-{5-[4-(4-morpholinyl)butyl]-2-thienyl}-3-quinolinecarbonitrile] | 0.6 µM | 188 °C (dec.) |
| COc1cc(Nc2c(C#N)cnc3cc(-c4ccc(CN5CCOCC5)o4)ccc23)c(Cl)cc1Cl [Example 53, 4-(2,4-Dichloro-5-methoxyanilino)-7-[5-(4-morpholinylmethyl)-2-furyl]-3-quinolinecarbonitrile] | 0.25 µM | 182 to 183 °C |
| COc1cc(Nc2c(C#N)cnc3cc(-c4ccc(CNCCS(C)(=O)=O)cc4)ccc23)c(Cl)cc1Cl [Example 88, 4-(2,4-dichloro-5-methoxyanilino)-7-[4-({[2-(methylsulfonyl)ethyl]amino}methyl)phenyl]-3-quinolinecarbonitrile] | 0.85 µM | 245 to 246 °C |
